According to PubChem BioAssay (NCI):
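96-well plates; 48 h exposure; 5 concentrations. Endpoints by linear interpolation between flanking doses. Not reached: highest tested concentration assigned. GI50 = concentration required for 50% inhibition of growth. TGI denotes the concentration required for complete inhibition of growth.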

Key:
Assay in all cases: NCI-60 cell line screen, 48 h
786-0 renal = tested on: 786-0 renal
A498 renal = tested on: A498 renal
A549 NSCLC = tested on: A549 NSCLC
ACHN renal = tested on: ACHN renal
BT-549 breast = tested on: BT-549 breast
CAKI-1 renal = tested on: CAKI-1 renal
CCRF-CEM leukemia = tested on: CCRF-CEM leukemia
COLO 205 colon = tested on: COLO 205 colon
DU-145 prostate = tested on: DU-145 prostate
EKVX NSCLC = tested on: EKVX NSCLC
HCC-2998 colon = tested on: HCC-2998 colon
HCT-116 colon = tested on: HCT-116 colon
HCT-15 colon = tested on: HCT-15 colon
HL-60(TB) leukemia = tested on: HL-60(TB) leukemia
HOP-62 NSCLC = tested on: HOP-62 NSCLC
HOP-92 NSCLC = tested on: HOP-92 NSCLC
HS 578T breast = tested on: HS 578T breast
HT29 colon = tested on: HT29 colon
IGROV1 ovarian = tested on: IGROV1 ovarian
K-562 leukemia = tested on: K-562 leukemia
KM12 colon = tested on: KM12 colon
LOX IMVI melanoma = tested on: LOX IMVI melanoma
M14 melanoma = tested on: M14 melanoma
MALME-3M melanoma = tested on: MALME-3M melanoma
MCF7 breast = tested on: MCF7 breast
MDA-MB-231 breast = tested on: MDA-MB-231 breast
MDA-MB-435 = tested on: MDA-MB-435
MOLT-4 leukemia = tested on: MOLT-4 leukemia
NCI-H226 lung = tested on: NCI-H226 lung
NCI-H23 lung = tested on: NCI-H23 lung
NCI-H460 lung = tested on: NCI-H460 lung
NCI-H522 lung = tested on: NCI-H522 lung
NCI/ADR-RES ovarian = tested on: NCI/ADR-RES ovarian
OVCAR-3 ovarian = tested on: OVCAR-3 ovarian
OVCAR-4 ovarian = tested on: OVCAR-4 ovarian
OVCAR-5 ovarian = tested on: OVCAR-5 ovarian
OVCAR-8 ovarian = tested on: OVCAR-8 ovarian
PC-3 prostate = tested on: PC-3 prostate
RPMI-8226 leukemia = tested on: RPMI-8226 leukemia
RXF 393 renal = tested on: RXF 393 renal
SF-268 CNS = tested on: SF-268 CNS
SF-295 CNS = tested on: SF-295 CNS
SF-539 CNS = tested on: SF-539 CNS
SK-MEL-2 melanoma = tested on: SK-MEL-2 melanoma
SK-MEL-28 melanoma = tested on: SK-MEL-28 melanoma
SK-MEL-5 melanoma = tested on: SK-MEL-5 melanoma
SK-OV-3 ovarian = tested on: SK-OV-3 ovarian
SN12C renal = tested on: SN12C renal
SNB-19 CNS = tested on: SNB-19 CNS
SNB-75 CNS = tested on: SNB-75 CNS
SR leukemia = tested on: SR leukemia
SW-620 colon = tested on: SW-620 colon
T-47D breast = tested on: T-47D breast
TK-10 renal = tested on: TK-10 renal
U251 CNS = tested on: U251 CNS
UACC-257 melanoma = tested on: UACC-257 melanoma
UACC-62 melanoma = tested on: UACC-62 melanoma
UO-31 renal = tested on: UO-31 renal

Structure (SMILES): CCN(CC)S(=O)(=O)c1cccc(-c2ccc3c(NC(=O)C4CC4)n[nH]c3c2)c1
- GI50 (786-0 renal): 2500 nM
- TGI (786-0 renal): > 6.25 µM
- GI50 (A498 renal): 1610 nM
- TGI (A498 renal): > 6.25 µM
- GI50 (A549 NSCLC): 2790 nM
- TGI (A549 NSCLC): > 6.25 µM
- GI50 (ACHN renal): 3.54 µM
- TGI (ACHN renal): > 6.25 µM
- GI50 (BT-549 breast): 1530 nM
- TGI (BT-549 breast): > 6.25 µM
- GI50 (CAKI-1 renal): 2280 nM
- TGI (CAKI-1 renal): > 6.25 µM
- GI50 (CCRF-CEM leukemia): 1840 nM
- TGI (CCRF-CEM leukemia): > 6.25 µM
- GI50 (COLO 205 colon): 1710 nM
- TGI (COLO 205 colon): > 6.25 µM
- GI50 (DU-145 prostate): 2260 nM
- TGI (DU-145 prostate): > 6.25 µM
- GI50 (EKVX NSCLC): 2190 nM
- TGI (EKVX NSCLC): > 6.25 µM
- GI50 (HCC-2998 colon): > 6.25 µM
- TGI (HCC-2998 colon): > 6.25 µM
- GI50 (HCT-116 colon): 1920 nM
- TGI (HCT-116 colon): > 6.25 µM
- GI50 (HCT-15 colon): 2400 nM
- TGI (HCT-15 colon): > 6.25 µM
- GI50 (HL-60(TB) leukemia): 2170 nM
- TGI (HL-60(TB) leukemia): > 6.25 µM
- GI50 (HOP-62 NSCLC): 2540 nM
- TGI (HOP-62 NSCLC): > 6.25 µM
- GI50 (HOP-92 NSCLC): 2580 nM
- TGI (HOP-92 NSCLC): > 6.25 µM
- GI50 (HS 578T breast): 1830 nM
- TGI (HS 578T breast): > 6.25 µM
- GI50 (HT29 colon): 2300 nM
- TGI (HT29 colon): > 6.25 µM
- GI50 (IGROV1 ovarian): 3.79 µM
- TGI (IGROV1 ovarian): > 6.25 µM
- GI50 (K-562 leukemia): 381 nM
- TGI (K-562 leukemia): > 6.25 µM
- GI50 (KM12 colon): 1080 nM
- TGI (KM12 colon): > 6.25 µM
- GI50 (LOX IMVI melanoma): 2440 nM
- TGI (LOX IMVI melanoma): > 6.25 µM
- GI50 (M14 melanoma): 1470 nM
- TGI (M14 melanoma): > 6.25 µM
- GI50 (MALME-3M melanoma): 1460 nM
- TGI (MALME-3M melanoma): > 6.25 µM
- GI50 (MCF7 breast): 1190 nM
- TGI (MCF7 breast): > 6.25 µM
- GI50 (MDA-MB-231 breast): 2840 nM
- TGI (MDA-MB-231 breast): > 6.25 µM
- GI50 (MDA-MB-435): 283 nM
- TGI (MDA-MB-435): > 6.25 µM
- GI50 (MOLT-4 leukemia): 1750 nM
- TGI (MOLT-4 leukemia): > 6.25 µM
- GI50 (NCI-H226 lung): 3.78 µM
- TGI (NCI-H226 lung): > 6.25 µM
- GI50 (NCI-H23 lung): 1860 nM
- TGI (NCI-H23 lung): > 6.25 µM
- GI50 (NCI-H460 lung): 2080 nM
- TGI (NCI-H460 lung): > 6.25 µM
- GI50 (NCI-H522 lung): 1080 nM
- TGI (NCI-H522 lung): > 6.25 µM
- GI50 (NCI/ADR-RES ovarian): > 6.25 µM
- TGI (NCI/ADR-RES ovarian): > 6.25 µM
- GI50 (OVCAR-3 ovarian): 1900 nM
- TGI (OVCAR-3 ovarian): > 6.25 µM
- GI50 (OVCAR-4 ovarian): 1610 nM
- TGI (OVCAR-4 ovarian): > 6.25 µM
- GI50 (OVCAR-5 ovarian): 5.69 µM
- TGI (OVCAR-5 ovarian): > 6.25 µM
- GI50 (OVCAR-8 ovarian): 2690 nM
- TGI (OVCAR-8 ovarian): > 6.25 µM
- GI50 (PC-3 prostate): 2110 nM
- TGI (PC-3 prostate): > 6.25 µM
- GI50 (RPMI-8226 leukemia): 1600 nM
- TGI (RPMI-8226 leukemia): > 6.25 µM
- GI50 (RXF 393 renal): 1940 nM
- TGI (RXF 393 renal): 5.17 µM
- GI50 (SF-268 CNS): 2340 nM
- TGI (SF-268 CNS): > 6.25 µM
- GI50 (SF-295 CNS): 1660 nM
- TGI (SF-295 CNS): > 6.25 µM
- GI50 (SF-539 CNS): 1470 nM
- TGI (SF-539 CNS): 5.6 µM
- GI50 (SK-MEL-2 melanoma): 1850 nM
- TGI (SK-MEL-2 melanoma): > 6.25 µM
- GI50 (SK-MEL-28 melanoma): 3.06 µM
- TGI (SK-MEL-28 melanoma): > 6.25 µM
- GI50 (SK-MEL-5 melanoma): 986 nM
- TGI (SK-MEL-5 melanoma): 3.58 µM
- GI50 (SK-OV-3 ovarian): 3.48 µM
- TGI (SK-OV-3 ovarian): > 6.25 µM
- GI50 (SN12C renal): 3.77 µM
- TGI (SN12C renal): > 6.25 µM
- GI50 (SNB-19 CNS): 3.13 µM
- TGI (SNB-19 CNS): > 6.25 µM
- GI50 (SNB-75 CNS): 1320 nM
- TGI (SNB-75 CNS): > 6.25 µM
- GI50 (SR leukemia): 259 nM
- TGI (SR leukemia): > 6.25 µM
- GI50 (SW-620 colon): 2270 nM
- TGI (SW-620 colon): > 6.25 µM
- GI50 (T-47D breast): 1050 nM
- TGI (T-47D breast): > 6.25 µM
- GI50 (TK-10 renal): 5.06 µM
- TGI (TK-10 renal): > 6.25 µM
- GI50 (U251 CNS): 2100 nM
- TGI (U251 CNS): > 6.25 µM
- GI50 (UACC-257 melanoma): 2260 nM
- TGI (UACC-257 melanoma): > 6.25 µM
- GI50 (UACC-62 melanoma): 2280 nM
- TGI (UACC-62 melanoma): > 6.25 µM
- GI50 (UO-31 renal): 3.97 µM
- TGI (UO-31 renal): > 6.25 µM
